The values below come from US10231966B2, “Combination therapy for treating pulmonary hypertension” (priority 2016, dated 2019).

By half-life is commonly meant the time needed for the level to fall by half in the phase considered.

Like-named read-outs stand apart in the source and are kept apart here.

Data set [1] deals with PDGFB gene expression. Kind of data set: PDGFB lung gene expression (RT-qPCR) in the AAV-PDGFB SU5416 hypoxia rat model. It is filed as in vivo. Particulars: RT-qPCR normalized to 18S, 4 weeks treatment. As to the method: Four weeks later, 20 mg/kg of semaxanib (SU5416) was administered using intraperitoneal (i.p.) injection, and the rats were housed in a hypoxia chamber at fraction of inspired oxygen (FiO2) 10% for 3 weeks. […] Daily treatments were administered starting day 2 after removing the rats from the hypoxia chamber and were continued for 4 weeks (28 days). RNA from lung tissue was isolated using TRIzol™ reagent. The RNA concentration was measured using a Nanodrop™ 1000 Spectrophotometer. Equal amounts of RNA of each sample were transcribed to cDNA using a high-capacity cDNA Reverse Transcription kit. Reverse transcription (RT)-qPCR reactions were set up using TaqMan™ Gene Expression Master Mix and TaqMan™ primers/probes for PDGFB and 18S. The gene expression assay was carried out using a QuantStudio™ 6 Flex system. Gene expression was normalized to the expression of 18S, which was used as a housekeeping gene.

The nature of data set [2]: in vivo. The conditions noted are these: male, Sprague Dawley, rat.
Data set [3] addresses T1, pPDGFRβ (Y1021) (Rattus norvegicus, UniProt Q05030).
T1 construct: Lung tissue samples were homogenized in pH 7.4 lysis buffer; from tissue; host or cells: rat lung (male SD rats)
Description: Western blot of pPDGFRβ (Y1021) in lung lysates of rats with pulmonary hypertension after inhaled Compound 1. In kind it is in vivo. The conditions noted are these: pPDGFRβ (Y1021) vs total PDGFRβ. In general terms: A western blot detects proteins with antibodies after separation by electrophoresis.

Data set [4] addresses PDGFRβ (Homo sapiens, UniProt P09619). Particulars: human lung fibroblasts.
In data set [5] the target is T2, phosphorylated PDGFRβ (Y1021) (Rattus norvegicus, UniProt Q05030).
T2 construct: from tissue; host or cells: rat lung (male SD rats)
T2 sequence (Q05030 32-1097): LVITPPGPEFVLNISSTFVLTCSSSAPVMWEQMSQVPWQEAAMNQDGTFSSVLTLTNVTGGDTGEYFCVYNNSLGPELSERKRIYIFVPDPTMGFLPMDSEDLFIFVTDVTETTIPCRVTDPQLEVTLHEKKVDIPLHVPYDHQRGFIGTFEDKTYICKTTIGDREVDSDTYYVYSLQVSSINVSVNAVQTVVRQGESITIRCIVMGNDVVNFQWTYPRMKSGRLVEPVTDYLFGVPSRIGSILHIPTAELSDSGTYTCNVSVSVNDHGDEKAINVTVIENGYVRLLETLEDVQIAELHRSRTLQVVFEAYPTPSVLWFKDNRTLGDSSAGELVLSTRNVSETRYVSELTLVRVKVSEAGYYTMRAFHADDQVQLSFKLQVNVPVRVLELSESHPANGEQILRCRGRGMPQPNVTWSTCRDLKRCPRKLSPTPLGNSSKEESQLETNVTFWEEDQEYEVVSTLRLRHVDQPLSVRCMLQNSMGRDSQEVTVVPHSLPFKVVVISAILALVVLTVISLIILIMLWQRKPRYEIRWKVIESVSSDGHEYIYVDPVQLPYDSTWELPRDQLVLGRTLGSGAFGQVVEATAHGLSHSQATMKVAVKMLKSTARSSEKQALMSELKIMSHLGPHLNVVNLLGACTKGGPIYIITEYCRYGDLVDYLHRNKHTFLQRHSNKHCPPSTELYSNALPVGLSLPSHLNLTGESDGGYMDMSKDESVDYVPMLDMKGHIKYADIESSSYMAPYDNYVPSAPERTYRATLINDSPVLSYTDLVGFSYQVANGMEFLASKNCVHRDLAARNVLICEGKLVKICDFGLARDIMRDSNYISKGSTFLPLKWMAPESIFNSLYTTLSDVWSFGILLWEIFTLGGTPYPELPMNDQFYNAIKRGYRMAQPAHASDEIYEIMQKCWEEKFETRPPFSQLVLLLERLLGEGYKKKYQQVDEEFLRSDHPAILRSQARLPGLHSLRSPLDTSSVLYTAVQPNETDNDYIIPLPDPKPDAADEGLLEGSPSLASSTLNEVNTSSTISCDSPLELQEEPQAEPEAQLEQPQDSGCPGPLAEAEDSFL
Kind of data set: Immunohistochemistry of lung sections for pPDGFRβ in the AAV-PDGFB SU5416 hypoxia model. In kind it is in vivo. Particulars: vs V-V and TA-V. As to the method:
(§1) Four weeks later, 20 mg/kg of semaxanib (SU5416) was administered using intraperitoneal (i.p.) injection, and the rats were housed in a hypoxia chamber at fraction of inspired oxygen (FiO2) 10% for 3 weeks. […] Daily treatments were administered starting day 2 after removing the rats from the hypoxia chamber and were continued for 4 weeks (28 days). Antigen retrieval was performed using heat-induced epitope retrieval. Immunohistochemistry of lung sections was performed for PDGFBB, total PDGFRα, total PDGFRβ, pPDGFRα, and pPDGFRβ. Signal detection was performed with an EXPOSE horseradish peroxidase/diaminobenzidine (HRP/DAB) kit.

Data set [6] deals with T1, pPDGFRβ (Y1021). Kind of data set: Western blot of lung pPDGFRβ (Y1021) in the AAV-PDGFB SU5416 hypoxia model. It is filed as in vivo. The conditions noted are these: vs V-V and TA-V, total PDGFRβ and β actin controls. As to the method:
Four weeks later, 20 mg/kg of semaxanib (SU5416) was administered using intraperitoneal (i.p.) injection, and the rats were housed in a hypoxia chamber at fraction of inspired oxygen (FiO2) 10% for 3 weeks. […] Daily treatments were administered starting day 2 after removing the rats from the hypoxia chamber and were continued for 4 weeks (28 days). […] Lysates were normalized and separated on 7.5% or 12% polyacrylamide gels and transferred to nitrocellulose membranes. After blocking, the membranes were probed with one of the following antibodies: anti-PDGFRβ, anti-phospho ([…])-PDGFRβ, pMYPT, MYPT, pSTAT3, or STAT3. The samples were incubated overnight on a shaker, followed by a 1 hour incubation with secondary antibodies conjugated with HRP. Bound antibodies were detected by chemiluminescence using an enhanced chemiluminescence (ECL) detection system, and quantified by densitometry using a Licor C-Digit® Blot Scanner.

Data set [7] concerns the target T3, phosphorylated PDGFRα (Y751) (Rattus norvegicus, UniProt P20786).
T3 construct: from tissue; host or cells: rat lung sections (male SD rats)
Kind of data set: Immunohistochemistry of lung sections for pPDGFRα in the AAV-PDGFB SU5416 hypoxia model. It is filed as in vivo. The conditions noted are these: vs V-V and TA-V. The procedure: as §1

Data set [8] has as its system AAV-PDGFB overexpression SU5416 hypoxia rat model of PH. Description: AAV-PDGFB SU5416 hypoxia study: RVSP, right ventricular hypertrophy, lumen/media ratio. It is filed as in vivo.
The conditions of data set [9]: rat, in vivo, 0.4 mg/kg.
The test system of data set [10] is PDGFRβ isoform, PDGFRα isoform. The conditions noted are these: background statement; cited from earlier work.
In data set [11] the test system is rat monocrotaline model of PAH. Particulars: background statement; cited from earlier work.
The subject of data set [12] is patients with advanced PAH. The conditions noted are these: background statement; cited from earlier work.
Where [13] appears, read: inhaled or intranasal, 0.4 mg/kg.

T1 sequence (Q05030 32-1097): as above
T3 sequence (P20786 24-1088): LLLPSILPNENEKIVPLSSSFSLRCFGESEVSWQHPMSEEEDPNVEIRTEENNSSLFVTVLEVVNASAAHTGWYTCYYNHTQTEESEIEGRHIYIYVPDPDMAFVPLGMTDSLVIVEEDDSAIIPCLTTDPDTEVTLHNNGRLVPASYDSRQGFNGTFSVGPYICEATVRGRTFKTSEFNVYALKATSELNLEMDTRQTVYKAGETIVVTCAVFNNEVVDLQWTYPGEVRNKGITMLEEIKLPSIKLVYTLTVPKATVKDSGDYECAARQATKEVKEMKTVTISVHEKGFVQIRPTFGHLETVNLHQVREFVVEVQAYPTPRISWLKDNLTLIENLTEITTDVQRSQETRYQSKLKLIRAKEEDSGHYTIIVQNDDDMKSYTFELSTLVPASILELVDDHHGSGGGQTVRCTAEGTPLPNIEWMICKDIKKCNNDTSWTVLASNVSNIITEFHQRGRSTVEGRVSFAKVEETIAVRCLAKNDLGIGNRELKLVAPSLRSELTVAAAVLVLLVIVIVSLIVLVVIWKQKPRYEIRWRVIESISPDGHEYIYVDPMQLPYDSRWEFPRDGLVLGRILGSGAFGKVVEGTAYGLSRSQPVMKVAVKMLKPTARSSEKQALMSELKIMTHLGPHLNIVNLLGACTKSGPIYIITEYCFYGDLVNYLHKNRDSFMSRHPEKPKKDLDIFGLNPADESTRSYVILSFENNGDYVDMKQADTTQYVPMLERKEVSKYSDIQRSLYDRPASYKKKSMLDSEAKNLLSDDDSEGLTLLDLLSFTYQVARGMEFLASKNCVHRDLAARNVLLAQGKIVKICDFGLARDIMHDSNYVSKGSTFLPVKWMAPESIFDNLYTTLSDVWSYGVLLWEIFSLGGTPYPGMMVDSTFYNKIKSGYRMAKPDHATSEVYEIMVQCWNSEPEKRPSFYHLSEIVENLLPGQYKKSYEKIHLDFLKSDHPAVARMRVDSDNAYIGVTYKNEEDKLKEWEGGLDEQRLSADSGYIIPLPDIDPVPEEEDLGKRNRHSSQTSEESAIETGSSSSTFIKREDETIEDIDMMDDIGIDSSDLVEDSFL
Chain of PDGFRβ (P09619 33-1106): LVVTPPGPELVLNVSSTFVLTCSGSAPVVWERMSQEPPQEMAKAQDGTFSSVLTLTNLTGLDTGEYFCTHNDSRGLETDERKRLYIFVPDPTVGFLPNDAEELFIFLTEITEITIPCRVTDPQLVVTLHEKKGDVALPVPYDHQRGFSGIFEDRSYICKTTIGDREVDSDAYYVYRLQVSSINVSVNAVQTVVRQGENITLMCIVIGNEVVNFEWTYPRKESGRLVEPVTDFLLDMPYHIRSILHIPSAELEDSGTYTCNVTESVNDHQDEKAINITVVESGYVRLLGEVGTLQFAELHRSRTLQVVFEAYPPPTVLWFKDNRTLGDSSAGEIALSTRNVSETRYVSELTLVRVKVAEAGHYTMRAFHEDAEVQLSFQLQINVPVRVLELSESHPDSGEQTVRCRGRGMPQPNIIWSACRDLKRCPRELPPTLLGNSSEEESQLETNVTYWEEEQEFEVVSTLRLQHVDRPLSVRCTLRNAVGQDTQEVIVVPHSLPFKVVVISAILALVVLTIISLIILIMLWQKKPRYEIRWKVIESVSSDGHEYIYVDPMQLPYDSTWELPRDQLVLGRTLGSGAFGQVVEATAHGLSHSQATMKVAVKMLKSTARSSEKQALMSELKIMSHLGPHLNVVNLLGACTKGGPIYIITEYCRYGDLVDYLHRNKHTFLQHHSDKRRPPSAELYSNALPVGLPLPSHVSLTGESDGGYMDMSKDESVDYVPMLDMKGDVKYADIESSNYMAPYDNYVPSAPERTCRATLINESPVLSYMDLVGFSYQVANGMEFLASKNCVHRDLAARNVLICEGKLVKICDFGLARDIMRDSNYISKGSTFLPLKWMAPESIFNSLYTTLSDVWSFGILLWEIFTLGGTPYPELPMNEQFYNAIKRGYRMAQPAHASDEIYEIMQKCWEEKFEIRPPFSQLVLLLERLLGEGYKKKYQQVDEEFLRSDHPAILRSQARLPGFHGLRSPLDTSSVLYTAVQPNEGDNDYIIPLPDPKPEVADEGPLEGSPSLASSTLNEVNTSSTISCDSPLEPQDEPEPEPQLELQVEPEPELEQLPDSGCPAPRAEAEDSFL

Turning to `COc1ccc(-c2cncc(N[C@@H](C)c3cccc(NC(=O)c4cncc(C)c4)c3)n2)cc1OC` [Compound 1], the “effect on levels of PDGFB gene expression” value in [1] is “did not affect levels of PDGFB gene expression significantly”. The compound also gave a Kp in data set [2] (0.4 mg/kg) of 20 to 80. In data set [2] (setting [13]), this compound showed an AUC(0-inf) of 2130 ng·h/mL and an AUC(0-t) of 1940 ng·h/mL. Further, the half-life in data set [2] (inhaled or intranasal, terminal half-life in lung (t1/2β)) amounted to 6.43 h. Besides, the half-life in data set [2] (inhaled or intranasal, terminal half-life in plasma) was 2.08 h. In data set [3], the “pPDGFRβ levels in lung compared to animals treated with the vehicle” value is reported as “decreased pPDGFRβ levels”. For the same compound, the “fold more potent than imatinib at inhibiting PDGFB-stimulated phosphorylation of PDGFRβ” value in data set [4] is recorded as “about 2.5 fold”. Also, the “phosphorylated PDGFRβ (Y1021) in the lungs” value in [5] is recorded as “decrease”. The “pPDGFRβ (Y1021) in the lungs” value in [6] was “decreases”. The “phosphorylated PDGFRα (Y751) in the lungs” value in [7] is listed as “decrease”. The “lumen/media ratio of pulmonary arterioles” value in [8] (H&E lung sections, four weeks treatment, mean±SEM) amounted to 0.76±0.04. The “AVG RVSP” value in data set [8] (Table 4, four weeks treatment) is reported as 44.30 mm Hg. Further, in data set [8] (Table 4, vs V-V), the “% Reduction RVSP” value is 29%. Further, in data set [8] (four weeks treatment), the “decrease of RV/(LV+IVS) ratio compared to the vehicle (V-V) group” value is reported as 25% and the “decrease of RVSP compared to vehicle (V-V)” value is given as 29%. Further, the RVSP in [8] (four weeks, tadalafil 10 mg/kg and ambrisentan 10 mg/kg gavage once daily, Compound 1 0.6 mg/kg inhaled twice daily, mean±SEM) is listed as 44.3±1.9 mm Hg. Also, in data set [8] (ratio of RV weight to LV plus interventricular septum weight, four weeks treatment, mean±SEM), the “right ventricular hypertrophy, RV/(LV+IVS)” value came out at 0.36±0.01. Besides, in data set [9] (male, Sprague Dawley), the “maximum arterial and venous average concentrations” value is listed as “about 1 μg/mL”; the “time after administration at which average arterial and venous concentrations reached zero” value is reported as “about 400 minutes”. In addition, in [9] (inhaled or intranasal), the “AUC(0-inf)” value turned out to be 25403.578 µg·min/g and the “AUC(0-t)” value came out at 23583.976 µg·min/g.

Regarding `Cc1ccc(NC(=O)c2ccc(CN3CCN(C)CC3)cc2)cc1Nc1nccc(-c2cccnc2)n1` [imatinib], in [10], the “potency against PDGFR isoforms” value was “less potent against the PDGFRβ isoform than the PDGFRα isoform”. In data set [11], the “right ventricular systolic pressure (RVSP)” value is listed as “decreases” and the survival entry was “improves survival”. Besides, the cardiopulmonary hemodynamics entry in data set [12] is reported as “improves”.
